# Values joined by “and” are separate entries in the source; they are usually repeats but may differ in a detail not shown here. Equal entries are not always repeated.
# Experiments:
# [1] = In vitro stability in human plasma; type: in vitro ADME; conditions: for % Remaining at 60 min (Mean): Human plasma, final concentration 2 μM
# Protocol: Test Article Solutions: COMPOUND A, COMPOUND B and COMPOUND C stock solutions at 10 mM were prepared in dimethyl sulfoxide (DMSO). Further dilution with DMSO was made to prepare 2.0 mM. The working solutions of 50 μM was prepared with 20% MeOH/water. […] Prior to use, the stock solutions were brought to room temperature and thoroughly mixed and prepared same as described above.
# Incubations were conducted in 96-well plate format. The time points defined for this study are 0, 5, 15, 30 and 60 minutes.
# An appropriate volume of plasma from test species were added to a 96-deep well plate, and COMPOUND A, COMPOUND B and COMPOUND C working solution was spiked into the plasma in duplicate to achieve a final concentration of 2.0 μM. For positive controls, the rat plasma was spiked with enalapril, the dog plasma spiked with bisacodyl and the human plasma was spiked with propantheline. All spiked plasma sample plates were incubated in a water bath at 37° C. with shaking.
# At the end of each time point, samples were immediately quenched with three volume of cold quenching solution.
# A study was conducted to examine the plasma stability. Test Compounds: COMPOUND D, COMPOUND E, and Viloxazine. Positive controls: Enalapril and Propantheline.
# [2] = Protein binding in CD-1 mouse plasma (equilibrium dialysis); conditions: dialysis conditions; no binding reported
# [3] = Metabolic stability in dog liver S9; type: in vitro ADME, Beagle dog; conditions: for half-life at 1 μM / microsomal CLint at 1 μM: pH 7.2
# Protocol: (§1) Incubation Buffer (PBK): 50 mM potassium phosphate buffer was prepared from 1 M potassium phosphate buffer, pH 7.2. […] The dilution of […] was prepared by 90% methanol/10% DMSO, then 10 μM working solutions were prepared by diluting the 0.1 mM intermediates with 50 mM PBK. […] Prior to use, the stock solutions were brought to room temperature and thoroughly mixed. […] Cofactors Solutions: the mixture of cofactors solution was made at 10 mM of NADPH and 10 mM of UDPGA in PBK buffer.
# (§2) The incubation was carried out in 96-well plates. The liver S9 working solutions were added to 96-well plates (80 μL/well) in duplicate. […] Reaction was initiated by adding cofactor mixture 10 μL/well. The plates were incubated at 37° C. in a water bath with shaking. […] The final organic solvent content in the incubation was ≤1%.
# (§3) At specified time points, i.e., 5, 10, 20, 30 and 60 minutes, NCF60 (without adding NADPH (Nicotinamide-adenine dinucleotide phosphate, reduced form) and UDPGA (Uridine 5′-diphosphoglucuronic acid trisodium salt) replaced with PBK buffer reaction was stopped by adding three volumes of stop solution. The time zero (To) samples were prepared by adding three volumes of stop solution to liver S9 samples, followed by addition of test article or control, and cofactor mixture solution 10 μL/well.
# (§4) Subsequently, 100 μL of supernatant.
# (§5) Positive controls: 7-ethoxycoumarin and 7-hydroxycoumarin.
# [4] = Tissue binding in CD-1 mouse brain homogenate (equilibrium dialysis)
# [5] = Metabolic stability in human intestinal homogenate; type: in vitro ADME; conditions: for half-life at 1 μM / microsomal CLint at 1 μM: pH 7.2; for microsomal CLint at 1 μM: read-out: CLint(mic.)
# Protocol: Incubation Buffer (PBK): 50 mM potassium phosphate buffer (PBK) was prepared from 1 M potassium phosphate buffer, pH 7.2. […] The dilution of 1 mM intermediate was prepared from 10 mM stock with 90% methanol/water, then […] working solutions were prepared by diluting the 1 mM intermediates with 50 mM PBK. […] Prior to use, the stock solutions were brought to room temperature and thoroughly mixed. […] Cofactors Solutions: the cofactor solution was made at 10 mM of NADPH (nicotinamide-adenine dinucleotide phosphate, reduced form) in 50 mM PBK buffer.
# The incubation was carried out in 96-well plates. The intestinal homogenate mixture solution was added to 96-well plates (80 μL/well) in duplicate. […] Reaction was initiated by adding cofactor solution at 10 µL/well. The plates were incubated at 37° C. in a water bath with shaking. […] The final organic solvent content in the incubation was ≤1%.
# At specified time points, i.e., 5, 10, 20, 30 and 60 minutes, NCF60 (no cofactor at 60 min, without adding NADPH replaced with 50 mM PBK buffer) reaction was stopped by adding three volumes of stop solution. The time zero (To) samples were prepared by adding three volumes of stop solution to intestinal homogenate samples, followed by addition of test article or control, and cofactor solution 10 μL/well.
# Subsequently, 100 μL of supernatant was removed from each well, diluted with 100 μL pure water and analyzed by LC/MS/MS.
# A study was conducted to examine the metabolic stability. […] Positive controls: 7-hydroxycoumarin and Testosterone.
# [6] = 80 mg/kg PO
# [7] = Metabolic stability in human liver S9; type: in vitro ADME; conditions: for half-life at 1 μM / microsomal CLint at 1 μM: pH 7.2
# Protocol: as §1, §2, §3, §4, §5
# [8] = dog liver S9, 1 μM, NCF60 (no cofactors, 60 min)
# [9] = human intestinal homogenate, 1 μM, 0 min
# [10] = human intestinal homogenate, 1 μM, 5 min
# [11] = human intestinal homogenate, 1 μM, 10 min
# [12] = human intestinal homogenate, 1 μM, 20 min
# [13] = human intestinal homogenate, 1 μM, 30 min
# [14] = human intestinal homogenate, 1 μM, 60 min
# [15] = human intestinal homogenate, 1 μM, NCF60 (no cofactor at 60 min)
# [16] = human liver S9, 1 μM, NCF60 (no cofactors, 60 min)
# [17] = 1 μM in Beagle Dog liver S9 fractions
# [18] = 1 μM in Beagle Dog liver S9 fractions, read-out: CLint(mic.)
# [19] = intestinal homogenate, Human intestinal homogenates
# [20] = 1 μM in Human liver S9 fractions
# [21] = 1 μM in Human liver S9 fractions, read-out: CLint(mic.)
smiles,measurement,setting,value
CCOc1ccccc1OC[C@@H]1CN(C(=O)OC(C)OC(=O)[C@@H](N)C(C)C)CCO1 (stereo partly drawn) [COMPOUND A],half-life at 2 μM,"[1]; human plasma, 2.0 μM",94.9 min
same,% Remaining,"[1]; human plasma, 2.0 μM, 0 min",100%
same,Analyte Peak area/IS Peak area Mean (N = 2),"[1]; human plasma, 2.0 μM, 0 min",2.31
same,% Remaining,"[1]; human plasma, 2.0 μM, 5 min",107%
same,Analyte Peak area/IS Peak area Mean (N = 2),"[1]; human plasma, 2.0 μM, 5 min",2.46
same,% Remaining,"[1]; human plasma, 2.0 μM, 15 min",93.1%
same,Analyte Peak area/IS Peak area Mean (N = 2),"[1]; human plasma, 2.0 μM, 15 min",2.15
same,% Remaining,"[1]; human plasma, 2.0 μM, 30 min",80.8%
same,Analyte Peak area/IS Peak area Mean (N = 2),"[1]; human plasma, 2.0 μM, 30 min",1.86
same,Analyte Peak area/IS Peak area Mean (N = 2),"[1]; human plasma, 2.0 μM, 60 min",1.57
same,stability in the mouse plasma,[2],instability
same,half-life at 1 μM,"[3]; Beagle, dog liver S9, 1 μM",11 min
same,microsomal CLint at 1 μM,"[3]; Beagle, dog liver S9, 1 μM, read-out: CLint(LS9)",126 µL/min/mg
same,% Remaining,"[3]; dog liver S9, 1 μM, 0 min",100%
same,Analyte Peak area/IS Peak area Mean × 100 (n = 2),"[3]; dog liver S9, 1 μM, 0 min",12.2
same,% Remaining,"[3]; dog liver S9, 1 μM, 5 min",8.0%
same,Analyte Peak area/IS Peak area Mean × 100 (n = 2),"[3]; dog liver S9, 1 μM, 5 min",0.98
same,% Remaining,"[3]; dog liver S9, 1 μM, 10 min",8.8%
same,Analyte Peak area/IS Peak area Mean × 100 (n = 2),"[3]; dog liver S9, 1 μM, 10 min",1.078
same,% Remaining,"[3]; dog liver S9, 1 μM, 20 min",5.2%
same,Analyte Peak area/IS Peak area Mean × 100 (n = 2),"[3]; dog liver S9, 1 μM, 20 min",0.635
same,% Remaining,"[3]; dog liver S9, 1 μM, 30 min",3.1%
same,Analyte Peak area/IS Peak area Mean × 100 (n = 2),"[3]; dog liver S9, 1 μM, 30 min",0.381
same,% Remaining,"[3]; dog liver S9, 1 μM, 60 min",0.8%
same,Analyte Peak area/IS Peak area Mean × 100 (n = 2),"[3]; dog liver S9, 1 μM, 60 min",0.097
same,% Remaining,[3]; [8],2.0%
same,Analyte Peak area/IS Peak area Mean × 100 (n = 2),[3]; [8],0.248
same,stability in mouse brain homogenate,"[4]; 2 μM, dialysis conditions",unstable
same,Analyte Peak area/IS Peak area CR (buffer side),"[4]; mouse brain homogenate, 2 μM, 4 hr dialysis (COMPOUND A 1 hr)",0.0003 and 0.0002
same,Analyte Peak area/IS Peak area Co (time zero),"[4]; mouse brain homogenate, 2 μM, time zero",0.010 and 0.012
same,% remaining after 1 hr,"[4]; mouse brain homogenate, 1 hr (data not shown)","^dCan't be determined due to instability of test article, which has 1.3% remaining after 1 hr (data not shown)."
same,% Remaining,[5]; [9],100%
same,Analyte Peak area/IS Peak area Mean (n = 2),[5]; [9],0.269
same,% Remaining,[5]; [10],0%
same,Analyte Peak area/IS Peak area Mean (n = 2),[5]; [10],0.000
same,% Remaining,[5]; [11],0%
same,Analyte Peak area/IS Peak area Mean (n = 2),[5]; [11],0.000
same,% Remaining,[5]; [12],0%
same,Analyte Peak area/IS Peak area Mean (n = 2),[5]; [12],0.000
same,% Remaining,[5]; [13],0%
same,Analyte Peak area/IS Peak area Mean (n = 2),[5]; [13],0.000
same,% Remaining,[5]; [14],0%
same,Analyte Peak area/IS Peak area Mean (n = 2),[5]; [14],0.000
same,% Remaining,[5]; [15],0%
same,Analyte Peak area/IS Peak area Mean (n = 2),[5]; [15],0.000
same,half-life at 1 μM,"[5]; human intestinal homogenate, 1 μM",< 2.5 min
same,Clinical observation (tolerability),[6]; beagle dogs,well tolerated
same,plasma concentration of the analog itself,[6]; LLOQ 3.0 ng/mL,mostly below the LLOQ
same,% Remaining,"[7]; human liver S9, 1 μM, 0 min",100%
same,Analyte Peak area/IS Peak area Mean × 100 (n = 2),"[7]; human liver S9, 1 μM, 0 min",11.7
same,% Remaining,"[7]; human liver S9, 1 μM, 5 min",1.4%
same,Analyte Peak area/IS Peak area Mean × 100 (n = 2),"[7]; human liver S9, 1 μM, 5 min",0.164
same,% Remaining,"[7]; human liver S9, 1 μM, 10 min",1.2%
same,Analyte Peak area/IS Peak area Mean × 100 (n = 2),"[7]; human liver S9, 1 μM, 10 min",0.143
same,% Remaining,"[7]; human liver S9, 1 μM, 20 min",0.3%
same,Analyte Peak area/IS Peak area Mean × 100 (n = 2),"[7]; human liver S9, 1 μM, 20 min",0.039
same,% Remaining,"[7]; human liver S9, 1 μM, 30 min",0.2%
same,Analyte Peak area/IS Peak area Mean × 100 (n = 2),"[7]; human liver S9, 1 μM, 30 min",0.021
same,% Remaining,"[7]; human liver S9, 1 μM, 60 min",0.01% and 0.0%
same,Analyte Peak area/IS Peak area Mean × 100 (n = 2),"[7]; human liver S9, 1 μM, 60 min",0.001
same,% Remaining,[7]; [16],0.1%
same,Analyte Peak area/IS Peak area Mean × 100 (n = 2),[7]; [16],0.008
same,half-life at 1 μM,"[7]; human liver S9, 1 μM",5.76 min
same,microsomal CLint at 1 μM,"[7]; human liver S9, 1 μM, read-out: CLint(LS9)",241 µL/min/mg
CCOc1ccccc1OCC1CN(C(=O)OC(C)OC(=O)[C@H](N)C(C)C)CCO1 (stereo partly drawn) [COMPOUND D],% Remaining at 60 min (Mean),[1],77.1%
same,% Remaining at 60 min,[3]; [17],3.10%
same,half-life at 1 μM,[3]; [17],12.6 min
same,microsomal CLint at 1 μM,[3]; [18],110 µL/min/mg
same,% Remaining at 60 min,[5]; Human intestinal homogenates,0.00%
same,half-life at 1 μM,[5]; [19],0.85 min
same,microsomal CLint at 1 μM,[5]; [19],1630 µL/min/mg
same,% Remaining at 60 min,[7]; [20],0.00%
same,half-life at 1 μM,[7]; [20],1.86 min
same,microsomal CLint at 1 μM,[7]; [21],746 µL/min/mg
CCOc1ccccc1OCC1CN(C(=O)OC(OC(=O)[C@@H](N)C(C)C)C(C)C)CCO1 (stereo partly drawn) [COMPOUND E],% Remaining at 60 min (Mean),[1],90.3%
same,% Remaining at 60 min,[3]; [17],0.25%
same,half-life at 1 μM,[3]; [17],8.3 min
same,microsomal CLint at 1 μM,[3]; [18],167 µL/min/mg
same,% Remaining at 60 min,[5]; Human intestinal homogenates,0.90%
same,half-life at 1 μM,[5]; [19],10.8 min
same,microsomal CLint at 1 μM,[5]; [19],128 µL/min/mg
same,% Remaining at 60 min,[7]; [20],0.76%
same,half-life at 1 μM,[7]; [20],8.9 min
same,microsomal CLint at 1 μM,[7]; [21],155 µL/min/mg
